# Assay results: paper PMC7576618 (British Journal of Clinical Pharmacology, 2020)
# System: healthy subjects
# Assay: SAD study: safety and tolerability
# Type: in vivo, human
# [1] = SAD Parts A and C, fasted conditions (total TS‐134)
# [2] = SAD Parts A and C, fed conditions (total TS‐134)
# [3] = SAD Parts A and C, 5 mg fasted (n = 6)
# [4] = SAD Parts A and C, 10 mg fasted (n = 6)
# [5] = SAD Parts A and C, 10 mg fed (n = 5)
# [6] = SAD Parts A and C, 20 mg fasted (n = 7)
# [7] = SAD Parts A and C, 20 mg fed (n = 3)
# [8] = SAD Parts A and C, Total TS‐134 fasted (n = 19)
# [9] = SAD Parts A and C, Total TS‐134 fed (n = 8)
structure (smiles),measurement,setting,value
"CC(C)[C@@H]1CC[C@@H](C)C[C@H]1OC(=O)O[C@@H](C)OC(=O)[C@H]1[C@@H]2C[C@H](F)[C@@](N)(C(=O)O)[C@@H]21.O=S(=O)(O)c1ccccc1 [TS‐134, (1S,2S,3S,5R,6S)‐2‐amino‐3‐ fluoro‐6‐({(1S)‐1‐[({[(1R,2S,5R)‐5‐methyl‐2‐(propan‐2‐yl)cyclohexyl]oxy}carbonyl)oxy]ethoxy}carbonyl)bicyclo[3.1.0]hexane‐2‐carboxylic acid monobenzenesulfonate]",incidence of headache,"SAD Part B, fed 10 mg TS‐134",25.0%
same,incidence of post lumbar puncture syndrome,"SAD Part B, fed 10 mg TS‐134",37.5%
same,incidence of somnolence,"SAD Part B, fed 10 mg TS‐134",25.0%
same,incidence of vomiting,"SAD Part B, fed 10 mg TS‐134",25.0%
same,Abnormal dreams,"SAD Part B, 10 mg fed (n = 8)",0 Number of subjects (%)
same,Dizziness,"SAD Part B, 10 mg fed (n = 8)",0 Number of subjects (%)
same,Headache,"SAD Part B, 10 mg fed (n = 8)",2 (25.0) Number of subjects (%)
same,Insomnia,"SAD Part B, 10 mg fed (n = 8)",0 Number of subjects (%)
same,Nausea,"SAD Part B, 10 mg fed (n = 8)",0 Number of subjects (%)
same,Number of subjects with at least 1 TEAE,"SAD Part B, 10 mg fed (n = 8)",6 (75.0) Number of subjects (%)
same,Post lumbar puncture syndrome,"SAD Part B, 10 mg fed (n = 8)",3 (37.5) Number of subjects (%)
same,Pruritus,"SAD Part B, 10 mg fed (n = 8)",0 Number of subjects (%)
same,Somnolence,"SAD Part B, 10 mg fed (n = 8)",2 (25.0) Number of subjects (%)
same,Total number of TEAEs,"SAD Part B, 10 mg fed (n = 8)",10
same,Vomiting,"SAD Part B, 10 mg fed (n = 8)",2 (25.0) Number of subjects (%)
same,incidence of nausea,[1],21.1%
same,incidence of vomiting,[1],31.6%
same,incidence of headache,[2],25.0%
same,incidence of nausea,[2],25.0%
same,Abnormal dreams,[3],0 Number of subjects (%)
same,Dizziness,[3],0 Number of subjects (%)
same,Headache,[3],1 (16.7) Number of subjects (%)
same,Insomnia,[3],0 Number of subjects (%)
same,Nausea,[3],0 Number of subjects (%)
same,Number of subjects with at least 1 TEAE,[3],2 (33.3) Number of subjects (%)
same,Post lumbar puncture syndrome,[3],0 Number of subjects (%)
same,Pruritus,[3],0 Number of subjects (%)
same,Somnolence,[3],0 Number of subjects (%)
same,Total number of TEAEs,[3],2
same,Vomiting,[3],0 Number of subjects (%)
same,Abnormal dreams,[4],0 Number of subjects (%)
same,Dizziness,[4],0 Number of subjects (%)
same,Headache,[4],0 Number of subjects (%)
same,Insomnia,[4],0 Number of subjects (%)
same,Nausea,[4],1 (16.7) Number of subjects (%)
same,Number of subjects with at least 1 TEAE,[4],4 (66.7) Number of subjects (%)
same,Post lumbar puncture syndrome,[4],0 Number of subjects (%)
same,Pruritus,[4],0 Number of subjects (%)
same,Somnolence,[4],1 (16.7) Number of subjects (%)
same,Total number of TEAEs,[4],6
same,Vomiting,[4],2 (33.3) Number of subjects (%)
same,Abnormal dreams,[5],0 Number of subjects (%)
same,Dizziness,[5],0 Number of subjects (%)
same,Headache,[5],1 (20.0) Number of subjects (%)
same,Insomnia,[5],0 Number of subjects (%)
same,Nausea,[5],1 (20.0) Number of subjects (%)
same,Number of subjects with at least 1 TEAE,[5],3 (60.0) Number of subjects (%)
same,Post lumbar puncture syndrome,[5],0 Number of subjects (%)
same,Pruritus,[5],0 Number of subjects (%)
same,Somnolence,[5],0 Number of subjects (%)
same,Total number of TEAEs,[5],4
same,Vomiting,[5],1 (20.0) Number of subjects (%)
same,Abnormal dreams,[6],0 Number of subjects (%)
same,Dizziness,[6],0 Number of subjects (%)
same,Headache,[6],1 (14.3) Number of subjects (%)
same,Insomnia,[6],0 Number of subjects (%)
same,Nausea,[6],3 (42.9) Number of subjects (%)
same,Number of subjects with at least 1 TEAE,[6],5 (71.4) Number of subjects (%)
same,Post lumbar puncture syndrome,[6],0 Number of subjects (%)
same,Pruritus,[6],0 Number of subjects (%)
same,Somnolence,[6],0 Number of subjects (%)
same,Total number of TEAEs,[6],11
same,Vomiting,[6],4 (57.1) Number of subjects (%)
same,Abnormal dreams,[7],0 Number of subjects (%)
same,Dizziness,[7],0 Number of subjects (%)
same,Headache,[7],1 (33.3) Number of subjects (%)
same,Insomnia,[7],0 Number of subjects (%)
same,Nausea,[7],1 (33.3) Number of subjects (%)
same,Number of subjects with at least 1 TEAE,[7],1 (33.3) Number of subjects (%)
same,Post lumbar puncture syndrome,[7],0 Number of subjects (%)
same,Pruritus,[7],0 Number of subjects (%)
same,Somnolence,[7],0 Number of subjects (%)
same,Total number of TEAEs,[7],3
same,Vomiting,[7],0 Number of subjects (%)
same,Abnormal dreams,[8],0 Number of subjects (%)
same,Dizziness,[8],0 Number of subjects (%)
same,Headache,[8],2 (10.5) Number of subjects (%)
same,Insomnia,[8],0 Number of subjects (%)
same,Nausea,[8],4 (21.1) Number of subjects (%)
same,Number of subjects with at least 1 TEAE,[8],11(57.9) Number of subjects (%)
same,Post lumbar puncture syndrome,[8],0 Number of subjects (%)
same,Pruritus,[8],0 Number of subjects (%)
same,Somnolence,[8],1 (5.3) Number of subjects (%)
same,Total number of TEAEs,[8],19
same,Vomiting,[8],6 (31.6) Number of subjects (%)
same,Abnormal dreams,[9],0 Number of subjects (%)
same,Dizziness,[9],0 Number of subjects (%)
same,Headache,[9],2 (25.0) Number of subjects (%)
same,Insomnia,[9],0 Number of subjects (%)
same,Nausea,[9],2 (25.0) Number of subjects (%)
same,Number of subjects with at least 1 TEAE,[9],4 (50.0) Number of subjects (%)
same,Post lumbar puncture syndrome,[9],0 Number of subjects (%)
same,Pruritus,[9],0 Number of subjects (%)
